In patent US10947210B2 (priority 2015, dated 2021):

Molecular target: HCV RNA-dependent RNA polymerase (NS5B) (Hepatitis C virus genotype 1b (isolate BK) (HCV), UniProt P26663)
Test: RNA-Dependent RNA HCV NS5B (polymerase) Assay and IC50 Determination
Assay type: biochemical
Settings: purified HCV NS5B polymerase, polyA:U16 substrate, 32P-UTP incorporation; read-out: IC50
Outline: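 Purified NS5B was incubated with 0.5 uM polyA:U16, 10 μM UTP plus ^32P-UTP in 50 mM Hepes-KOH pH 7.5, 5 mM MgCl2, 5 mM DTT, 2% glycerol and 0.01% Triton X-100. Inhibitor reactions ran 60 min at 37° C, and radiolabelled RNA product was quantified after filter capture. IC50 values were obtained from concentration series.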

Sequence of HCV RNA-dependent RNA polymerase (NS5B) (P26663 2420-3010): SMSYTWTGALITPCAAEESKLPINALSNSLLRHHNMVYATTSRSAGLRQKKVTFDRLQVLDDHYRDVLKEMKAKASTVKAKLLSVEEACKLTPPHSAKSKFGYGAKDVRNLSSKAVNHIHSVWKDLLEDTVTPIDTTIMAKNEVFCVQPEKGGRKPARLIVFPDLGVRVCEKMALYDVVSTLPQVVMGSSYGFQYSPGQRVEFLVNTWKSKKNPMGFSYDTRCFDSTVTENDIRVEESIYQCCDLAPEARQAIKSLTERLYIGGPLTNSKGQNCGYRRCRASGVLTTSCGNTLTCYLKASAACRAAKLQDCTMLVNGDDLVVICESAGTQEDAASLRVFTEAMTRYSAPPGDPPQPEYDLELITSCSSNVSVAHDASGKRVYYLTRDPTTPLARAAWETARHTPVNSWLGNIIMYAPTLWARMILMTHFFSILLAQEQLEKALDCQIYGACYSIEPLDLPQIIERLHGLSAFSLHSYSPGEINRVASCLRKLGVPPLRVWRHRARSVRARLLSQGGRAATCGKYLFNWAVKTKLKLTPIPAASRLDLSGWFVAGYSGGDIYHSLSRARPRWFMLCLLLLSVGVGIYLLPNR

SMILES | IC50 [µM]
CNC(=O)c1c(-c2ccc(F)cc2)oc2cc(N(CCCCCOCCCC(C)C(=O)O)S(C)(=O)=O)c(C3CC3)cc12 (stereo not drawn) [Compound 28-8B, 5-(5-{[5-Cyclopropyl-2-(4-fluoro-phenyl)-3-methylcarbamoyl-benzofuran-6-yl]-methanesulfonyl-amino}-pentyloxy)-2-methyl-pentanoic Acid] | < 0.1
CNC(=O)c1c(-c2ccc(F)cc2)oc2cc(N(CCOCCOCc3ccc(C(=O)OC)c([N+](=O)[O-])c3)S(C)(=O)=O)c(C3CC3)cc12 [Compound 29-7, 4-[2-(2-{[5-Cyclopropyl-2-(4-fluoro-phenyl)-3-methylcarbamoyl-benzofuran-6-yl]-methanesulfonyl-amino}-ethoxy)-ethoxymethyl]-2-nitro-benzoic Acid Methyl Ester] | 0.1 to 1
CNC(=O)c1c(-c2ccc(F)cc2)oc2cc(N(CCOCCOCc3ccc(C(=O)O)c([N+](=O)[O-])c3)S(C)(=O)=O)c(C3CC3)cc12 [Compound 29-8, 4-[2-(2-{[5-Cyclopropyl-2-(4-fluoro-phenyl)-3-methylcarbamoyl-benzofuran-6-yl]-methanesulfonyl-amino}-ethoxy)-ethoxymethyl]-2-nitro-benzoic Acid] | 0.1 to 1
CNC(=O)c1c(-c2ccc(F)cc2)oc2cc(N(CCOCCOCc3ccc(C(=O)OC)c(N)c3)S(C)(=O)=O)c(C3CC3)cc12 [Compound 29-9, 2-Amino-4-[2-(2-{[5-cyclopropyl-2-(4-fluoro-phenyl)-3-methylcarbamoyl-benzofuran-6-yl]-methanesulfonyl-amino}-ethoxy)-ethoxymethyl]-benzoic Acid Methyl Ester] | 0.1 to 1
CNC(=O)c1c(-c2ccc(F)cc2)oc2cc(N(CCOCCOCc3ccc(C(=O)O)c(N)c3)S(C)(=O)=O)c(C3CC3)cc12 [Compound 29-10, 2-Amino-4-[2-(2-{[5-cyclopropyl-2-(4-fluoro-phenyl)-3-methylcarbamoyl-benzofuran-6-yl]-methanesulfonyl-amino}-ethoxy)-ethoxymethyl]-benzoic Acid] | 0.1 to 1
CNC(=O)c1c(-c2ccc(F)cc2)oc2cc(N(CCOCCOCCOCC(C)=O)S(C)(=O)=O)c(C3CC3)cc12 [Compound 30-1, 5-Cyclopropyl-2-(4-fluoro-phenyl)-6-[methanesulfonyl-(2-{2-[2-(2-oxo-propoxy)-ethoxy]-ethoxy}-ethyl)-amino]-benzofuran-3-carboxylic acid methylamide] | > 1
CCOC(=O)C(C)OCCOCCOCCN(c1cc2oc(-c3ccc(F)cc3)c(C(=O)NC)c2cc1C1CC1)S(C)(=O)=O (stereo not drawn) [Compound 30-2, 2-{2-[2-(2-{[5-Cyclopropyl-2-(4-fluoro-phenyl)-3-methylcarbamoyl-benzofuran-6-yl]-methanesulfonyl-amino}-ethoxy)-ethoxy]-ethoxy}-propionic acid ethyl ester] | > 1
CCOC(=O)CCOCCOCCOCCN(c1cc2oc(-c3ccc(F)cc3)c(C(=O)NC)c2cc1C1CC1)S(C)(=O)=O [Compound 30-3, 3-{2-[2-(2-{[5-Cyclopropyl-2-(4-fluoro-phenyl)-3-methylcarbamoyl-benzofuran-6-yl]-methanesulfonyl-amino}-ethoxy)-ethoxy]-ethoxy}-propionic acid ethyl ester] | > 1
CNC(=O)c1c(-c2ccc(F)cc2)oc2cc(N(CCOCCOCCOCCOCc3cccc(C(=O)O)c3)S(C)(=O)=O)c(C3CC3)cc12 [Compound 30-4, 3-(2-{2-[2-(2-{[5-Cyclopropyl-2-(4-fluoro-phenyl)-3-methylcarbamoyl-benzofuran-6-yl]-methanesulfonyl-amino}-ethoxy)-ethoxy]-ethoxy}-ethoxymethyl)-benzoic acid] | > 1
CNC(=O)c1c(-c2ccc(F)cc2)oc2cc(N(CCOCCCc3cccc(C(C)=O)c3)S(C)(=O)=O)c(C3CC3)cc12 [Compound 30-5, 6-({2-[3-(3-Acetyl-phenyl)-propoxy]-ethyl}-methanesulfonyl-amino)-5-cyclopropyl-2-(4-fluoro-phenyl)-benzofuran-3-carboxylic acid methylamide] | > 1
CNC(=O)c1c(-c2ccc(F)cc2)oc2cc(N(CC(=O)NCC(=O)NCc3cccc(C(C)=O)c3)S(C)(=O)=O)c(C3CC3)cc12 [Compound 30-6, 6-[({[(3-Acetyl-benzylcarbamoyl)-methyl]-carbamoyl}-methyl)-methanesulfonyl-amino]-5-cyclopropyl-2-(4-fluoro-phenyl)-benzofuran-3-carboxylic acid methylamide] | > 1
CNC(=O)c1c(-c2ccc(F)cc2)oc2cc(N(CCOCCOCCOCc3ccc(C(=O)O)cc3)S(C)(=O)=O)c(C3CC3)cc12 [Compound 30-7, 4-{2-[2-(2-{[5-Cyclopropyl-2-(4-fluoro-phenyl)-3-methylcarbamoyl-benzofuran-6-yl]-methanesulfonyl-amino}-ethoxy)-ethoxy]-ethoxymethyl}-benzoic acid] | > 1
CNC(=O)c1c(-c2ccc(F)cc2)oc2cc(N(CCOCCOCCCc3cccc(C(=O)CC(=O)C(=O)O)c3)S(C)(=O)=O)c(C3CC3)cc12 [Compound 30-8, 4-(3-{3-[2-(2-{[5-Cyclopropyl-2-(4-fluoro-phenyl)-3-methylcarbamoyl-benzofuran-6-yl]-methanesulfonyl-amino}-ethoxy)-ethoxy]-propyl}-phenyl)-2,4-dioxo-butyric acid] | > 1
CNC(=O)c1c(-c2ccc(F)cc2)oc2cc(N(CCOCCCCOc3cccc(C(=O)CC(=O)C(=O)O)c3)S(C)(=O)=O)c(C3CC3)cc12 [Compound 30-9, 4-{3-[4-(2-{[5-Cyclopropyl-2-(4-fluoro-phenyl)-3-methylcarbamoyl-benzofuran-6-yl]-methanesulfonyl-amino}-ethoxy)-butoxy]-phenyl}-2,4-dioxo-butyric acid] | > 1
CNC(=O)c1c(-c2ccc(F)cc2)oc2cc(N(CCOCCOCCOCCCc3cccc(C(=O)CC(=O)C(=O)O)c3)S(C)(=O)=O)c(C3CC3)cc12 [Compound 30-10, 4-[3-(3-{2-[2-(2-{[5-Cyclopropyl-2-(4-fluoro-phenyl)-3-methylcarbamoyl-benzofuran-6-yl]-methanesulfonyl-amino}-ethoxy)-ethoxy]-ethoxy}-propyl)-phenyl]-2,4-dioxo-butyric acid] | > 1
CNC(=O)c1c(-c2ccc(F)cc2)oc2cc(N(CCOCCOCc3ccc(OC)c(C(=O)OC)c3)S(C)(=O)=O)c(C3CC3)cc12 [Compound 30-11, 5-[2-(2-{[5-Cyclopropyl-2-(4-fluoro-phenyl)-3-methylcarbamoyl-benzofuran-6-yl]-methanesulfonyl-amino}-ethoxy)-ethoxymethyl]-2-methoxy-benzoic acid methyl ester] | > 1
CNC(=O)c1c(-c2ccc(F)cc2)oc2cc(N(CCOCCOCCCCc3cccc(C(=O)CC(=O)C(=O)O)c3)S(C)(=O)=O)c(C3CC3)cc12 [Compound 30-12, 4-(3-{4-[2-(2-{[5-Cyclopropyl-2-(4-fluoro-phenyl)-3-methylcarbamoyl-benzofuran-6-yl]-methanesulfonyl-amino}-ethoxy)-ethoxy]-butyl}-phenyl)-2,4-dioxo-butyric acid] | > 1
CNC(=O)c1c(-c2ccc(F)cc2)oc2cc(N(CCOCCOCCOCCOCCOCCOCc3ccc(C(=O)O)cc3)S(C)(=O)=O)c(C3CC3)cc12 [Compound 30-13, 4-{2-[2-(2-{2-[2-(2-{[5-Cyclopropyl-2-(4-fluoro-phenyl)-3-methylcarbamoyl-benzofuran-6-yl]-methanesulfonyl-amino}-ethoxy)-ethoxy]-ethoxy}-ethoxy)-ethoxy]-ethoxymethyl}-benzoic acid] | > 1
